The values that follow come from patent US10849901B2, “Arf6 inhibitors and methods of synthesis and use thereof” (Navigen, Inc., priority 2014, dated 2020).

The target in one test is Arf6 (Homo sapiens (Human), UniProt P62330). The experiment in a line: Fluorometric assay for Arf6 nucleotide exchange catalyzed by ARNO Sec7 domain (GTP-BODIPY FL). It counts as biochemical. The following applies: 20 nM Arf6 assay; read-out: IC50 (μM) 20 nM Arf6. Here is the method: FIGS. 1A-1D: Fluorometric high throughput assay for Arf6 nucleotide exchange catalyzed by ARNO Sec7 domain. FIG. 1A: Principle of the assay. FIG. 1B: SDS-PAGE analysis of N-terminally His-tagged Arf6(14-175) and ARNO(50-255) purified from the E. coli cultures by immobilized metal affinity chromatography. FIG. 1C: Correlation between signal intensity and ARNO concentration. The assay was performed using 50 mM Tris-HCl, pH 7.5, 1 mM MgCl2, 0.01% TX-100, 1% DMSO, 50 nM GTP-BODIPY FL, supplemented with ARNO-Sec7 at indicated concentrations in the absence or in the presence of 0.2 μM Arf6-GDP. Fluorescence intensities were monitored using a Synergy 4 plate reader (BioTek) at the excitation and emission wavelengths of 490 nm and 520 nm, respectively. FIG. 1D: Time course of apparent inhibitory potency of GDP. The assay was performed in automated mode using a Matrix PlateMate liquid handler.
Arf6, sequence (P62330 14-175): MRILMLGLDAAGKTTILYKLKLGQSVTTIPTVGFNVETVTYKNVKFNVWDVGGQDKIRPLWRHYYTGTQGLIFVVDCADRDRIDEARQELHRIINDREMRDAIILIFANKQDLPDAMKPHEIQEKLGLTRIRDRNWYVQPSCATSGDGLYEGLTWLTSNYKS
The primary biochemical assay uses a fluorometric assay for monitoring the replacement of bound nucleotide with a fluorogenic GTP derivative bearing a BODIPY FL moiety, allowing for the identification of compounds that can inhibit this exchange (see FIG. 1A). In certain embodiments, the methods disclosed herein may exploit the reduction of intramolecular fluorescence quenching of the modified nucleotide upon its binding to the target protein (see, e.g., McEwen D P, Gee K R, Kang H C, Neubig R R. Fluorescent BODIPY-GTP analogs: real-time measurement of nucleotide binding to G proteins. Anal Biochem. 2001 Apr. 1; 291(1): 109-17).
The fluorometric assay formatted for 96-well microtiter plates has passed quality control based on the following criteria: i) S/B ratio of 4-fold and Z′-factor of 0.61; ii) linear correlation between signal intensity and ARNO concentration (see FIG. 1C); iii) sufficiently reproducible inhibitory effects of the reference inhibitor GDP for assay durations up to at least 1 hour (see FIG. 1D); and iv) lack of apparent fluorescence quenchers among 400 randomly selected compounds. The assay is amenable to automation with a throughput of approximately 5,000 data points per 8 hours.
Regarding `O=c1cc(-c2ccc(-c3ccncc3)cc2)[nH]c2c(-c3ccc(Cl)cc3)c(C(F)(F)F)nn12` [Compound 47], the IC50 worked out at 2.4 µM.

Consider `Cc1nn2c(=O)cc(-c3ccc(NC(=O)c4ccccc4)cc3)[nH]c2c1-c1ccc(Cl)cc1` [Compound 48], for which the 50% inhibitory concentration (IC50) was 2.4 µM. For `O=c1c(Cl)c(-c2ccccc2)[nH]c2c(-c3ccc(Cl)cc3)c(Cc3ccccc3)nn12` [Compound 49], the IC50 stood at 2.5 µM. For `CC(C)CC(=O)Nc1cccc(-c2cc(=O)n3nc(C(F)(F)F)c(-c4ccc(Cl)cc4)c3[nH]2)c1` [Compound 50], the IC50 stood at 2.5 µM. Same read-out and setting: to `Cc1nn2c(=O)cc(-c3ccc([N+](=O)[O-])cc3)[nH]c2c1-c1cccc2ccccc12` [Compound 51] belongs 2.7 µM; to `O=c1cc(-c2ccc([N+](=O)[O-])cc2)[nH]c2c(-c3ccc(Cl)cc3)c(Cc3cccnc3)nn12` [Compound 52], 2.8 µM.

With `Cc1nn2c(=O)cc(-c3cccc(-c4cccnc4)c3)[nH]c2c1-c1ccc(Cl)cc1` [Compound 53], the IC50 came out at 3 µM. In the case of `CSc1ccc(Cc2nn3c(=O)cc(-c4ccc([N+](=O)[O-])cc4)[nH]c3c2-c2ccc(Cl)cc2)cc1` [Compound 54], the IC50 amounted to 3 µM. On the same count and under the same terms, to `CN(C)C(=O)c1ccc(-c2cc(=O)n3nc(Cc4ccccc4)c(-c4ccc(Cl)cc4)c3[nH]2)cc1` [Compound 56] belongs 3.2 µM; to `Cc1nn2c(=O)cc(-c3ccc([N+](=O)[O-])cc3)[nH]c2c1-c1cccc(Cl)c1Cl` [Compound 57], 3.2 µM. On the same count and under the same terms, to `N#Cc1ccc(-c2cc(=O)n3nc(C4CC4)c(-c4ccc(Cl)cc4)c3[nH]2)cc1` [Compound 58] belongs 3.2 µM; to `CCC(=O)Nc1cccc(-c2cc(=O)n3nc(C(F)(F)F)c(-c4ccc(Cl)cc4)c3[nH]2)c1` [Compound 61], 3.3 µM. In the case of `O=c1cc(-c2ccccc2Br)[nH]c2c(-c3ccc(Cl)cc3)c(C(F)(F)F)nn12` [Compound 62], the IC50 worked out at 3.3 µM. As to `O=c1cc(-c2ccc([N+](=O)[O-])cc2)[nH]c2c(-c3ccc(Cl)cc3)c(CC3CCOCC3)nn12` [Compound 63], the IC50 was determined as 3.6 µM. Still for that read-out and setting: to `NC(=O)c1ccc(-c2cc(=O)n3nc(Cc4ccccc4)c(-c4ccc(Cl)cc4)c3[nH]2)cc1` [Compound 66] belongs 3.7 µM; to `CC(=O)Nc1ccc(-c2cc(=O)n3nc(C(F)(F)F)c(-c4ccc(Cl)cc4)c3[nH]2)cc1` [Compound 67], 3.7 µM; to `Cc1nn2c(=O)cc(-c3ccc(NS(=O)(=O)Cc4ccccc4)cc3)[nH]c2c1-c1ccc(Cl)cc1` [Compound 68], 3.8 µM. The same measure, in the same setting: as for `Cc1nc2c(=O)[nH]c(-c3ccc([N+](=O)[O-])cc3)nn2c1-c1ccc(Cl)cc1` [Compound 69], the figure is 4 µM; as for `Cc1nn2c(=O)cc(-c3cccc(-c4ccncc4)c3)[nH]c2c1-c1ccc(Cl)cc1` [Compound 70], 4.1 µM; as for `COC(=O)c1ccc(-c2cc(=O)n3nc(C4CC4)c(-c4ccc(Cl)cc4)c3[nH]2)cc1` [Compound 71], 4.1 µM. On the same count and under the same terms, as for `O=c1cc(-c2ccc([N+](=O)[O-])cc2)[nH]c2c(-c3ccccc3)c(C(F)(F)F)nn12` [Compound 72], the figure is 4.2 µM. Regarding `Cc1nn2c(=O)cc(-c3ccc([N+](=O)[O-])cc3)[nH]c2c1-c1ccc(Cl)c(F)c1` [Compound 73], the IC50 is 4.2 µM. The same measure, in the same setting: as for `CC(=O)Nc1cccc(-c2cc(=O)n3nc(C(F)(F)F)c(-c4ccc(Cl)cc4)c3[nH]2)c1` [Compound 74], the figure is 4.3 µM; as for `COCC(=O)Nc1ccc(-c2cc(=O)n3nc(C(F)(F)F)c(-c4ccc(Cl)cc4)c3[nH]2)cc1` [Compound 75], 4.4 µM; as for `Cc1nn2c(=O)cc(-c3ccc([N+](=O)[O-])cc3)[nH]c2c1-c1ccc(Cl)cc1Cl` [Compound 76], 4.5 µM. Same read-out and setting: to `O=c1cc(-c2ccc([N+](=O)[O-])cc2)[nH]c2c(-c3ccc(Cl)cc3)c(C3CCOCC3)nn12` [Compound 77] belongs 5.1 µM. Same read-out and setting: to `Nc1ccc(-c2cc(=O)n3nc(C(F)(F)F)c(-c4ccc(Cl)cc4)c3[nH]2)cc1` [Compound 78] belongs 5.2 µM. `N#Cc1cccc(-c2cc(=O)n3nc(C4CC4)c(-c4ccc(Cl)cc4)c3[nH]2)c1` [Compound 79]: the IC50 was 5.5 µM. On the same count and under the same terms, as for `O=c1cc(-c2ccc([N+](=O)[O-])cc2)[nH]c2c(-c3ccc(Cl)cc3)c(CN3CCOCC3)nn12` [Compound 80], the figure is 5.9 µM.

Regarding `Cc1nn2c(=O)cc(-c3ccc([N+](=O)[O-])cc3)[nH]c2c1Cc1ccc(Cl)cc1` [Compound 81], the IC50 amounted to 6 µM. Same read-out and setting: as for `CC(C)(C)c1nn2c(=O)cc(-c3ccccn3)[nH]c2c1-c1ccc(Cl)cc1` [Compound 82], the figure is 6 µM; as for `CC(C)(C)c1nn2c(=O)cc(-c3cccnc3)[nH]c2c1-c1ccc(Cl)cc1` [Compound 84], 6.4 µM; as for `CC(C)(C)c1nn2c(=O)cc(-c3cccc(C(N)=O)c3)[nH]c2c1-c1ccc(Cl)cc1` [Compound 85], 6.6 µM.

Take `CC(C)(C)c1nn2c(=O)cc(-c3cccc(C(=O)O)c3)[nH]c2c1-c1ccc(Cl)cc1` [Compound 86]: the IC50 was determined as 6.6 µM. Consider `CC(C)(C)c1nn2c(=O)cc(-c3cccc(S(C)(=O)=O)c3)[nH]c2c1-c1ccc(Cl)cc1` [Compound 87], for which the IC50 came to 6.7 µM.

For `Nc1cccc(-c2cc(=O)n3nc(C(F)(F)F)c(-c4ccc(Cl)cc4)c3[nH]2)c1` [Compound 88], the IC50 amounted to 7 µM.

On to `O=c1cc(-c2ccc([N+](=O)[O-])cc2)[nH]c2c(-c3ccc(Cl)cc3)c(CO)nn12` [Compound 90], for which the IC50 stood at 7.8 µM. Same read-out and setting: to `CS(=O)(=O)c1ccc(-c2cc(=O)n3nc(C4CC4)c(-c4ccc(Cl)cc4)c3[nH]2)cc1` [Compound 91] belongs 7.9 µM; to `O=C(O)c1ccccc1-c1cc(=O)n2nc(C(F)(F)F)c(-c3ccc(Cl)cc3)c2[nH]1` [Compound 92], 8.1 µM; to `Cc1nn2c(=O)cc(-c3ccc(F)cc3)[nH]c2c1-c1ccc(Cl)cc1` [Compound 93], 8.2 µM. On the same count and under the same terms, to `Cc1nn2c(=O)cc(-c3ccc([N+](=O)[O-])cc3)[nH]c2c1-c1ccc(S(C)(=O)=O)cc1` [Compound 94] belongs 8.8 µM.

The same test, now with this note: 200 nM Arf6 assay; read-out: IC50 (μM) 200 nM Arf6.
On to `Cc1nn2c(=O)cc(-c3ccc([N+](=O)[O-])cc3)[nH]c2c1-c1cccc2ccccc12` [Compound 51], for which the concentration for half-maximal inhibition (IC50) came to 4.9 µM. Still for that read-out and setting: to `O=c1cc(-c2ccc([N+](=O)[O-])cc2)[nH]c2c(-c3ccc(Cl)cc3)c(Cc3cccnc3)nn12` [Compound 52] belongs 4.8 µM; to `COc1ccc(-c2c(Cc3ccccc3)nn3c(=O)cc(-c4ccc([N+](=O)[O-])cc4)[nH]c23)cc1` [Compound 55], 3.1 µM; to `CN(C)C(=O)c1ccc(-c2cc(=O)n3nc(Cc4ccccc4)c(-c4ccc(Cl)cc4)c3[nH]2)cc1` [Compound 56], 2.6 µM. The same measure, in the same setting: to `O=c1cc(-c2ccc([N+](=O)[O-])cc2)[nH]c2c(-c3ccccc3)c(Cc3ccccc3)nn12` [Compound 59] belongs 3.2 µM; to `O=c1cc(-c2ccc([N+](=O)[O-])cc2)[nH]c2c(-c3ccc(Cl)cc3)cnn12` [Compound 60], 3.2 µM. The same measure, in the same setting: to `COc1ccc(Cc2nn3c(=O)cc(-c4ccc([N+](=O)[O-])cc4)[nH]c3c2-c2ccccc2)cc1` [Compound 64] belongs 3.6 µM. Take `NC(=O)c1ccc(-c2cc(=O)n3nc(Cc4ccccc4)c(-c4ccc(Cl)cc4)c3[nH]2)cc1` [Compound 66]: the IC50 was 2.8 µM. Still for that read-out and setting: as for `O=c1cc(-c2ccc([N+](=O)[O-])cc2)[nH]c2c(-c3ccccc3)c(C(F)(F)F)nn12` [Compound 72], the figure is 3.8 µM; as for `COc1ccc(-c2cc(=O)n3nc(Cc4ccccc4)c(-c4ccc(Cl)cc4)c3[nH]2)cc1` [Compound 83], 6.2 µM; as for `O=c1cc(Cc2ccccc2)[nH]c2c(-c3ccccc3)c(-c3ccccc3)nn12` [Compound 89], 7 µM.
